Test results published in paper PMC10322960 (European Journal of Drug Metabolism and Pharmacokinetics, 2023).
Read-outs that look alike come from different tables or passages of the source.

Assays:
BSEP = BSEP (Homo sapiens, UniProt O95342); experiment: BSEP vesicular transport inhibition assay; format: in vitro ADME
MDR1 = MDR1 (Homo sapiens, UniProt P08183); experiment: MDR1 monolayer substrate assay; format: in vitro ADME
CYP3A4 [1] = target: CYP3A4 (Homo sapiens, UniProt P08684); format: in vitro ADME
CYP3A4 [2] = settings: ocedurenone at 0.1, 1, or 10 μM, 72 h; inducer criterion 40%
[3] = following 0.5-mg dose at steady state; not from this study, ref not given; cited from earlier work
MATE1 = target: T1, MATE1 (Homo sapiens, UniProt Q96FL8); experiment: MATE1 uptake inhibition assay; format: in vitro ADME
T1 sequence (Q96FL8 1-570): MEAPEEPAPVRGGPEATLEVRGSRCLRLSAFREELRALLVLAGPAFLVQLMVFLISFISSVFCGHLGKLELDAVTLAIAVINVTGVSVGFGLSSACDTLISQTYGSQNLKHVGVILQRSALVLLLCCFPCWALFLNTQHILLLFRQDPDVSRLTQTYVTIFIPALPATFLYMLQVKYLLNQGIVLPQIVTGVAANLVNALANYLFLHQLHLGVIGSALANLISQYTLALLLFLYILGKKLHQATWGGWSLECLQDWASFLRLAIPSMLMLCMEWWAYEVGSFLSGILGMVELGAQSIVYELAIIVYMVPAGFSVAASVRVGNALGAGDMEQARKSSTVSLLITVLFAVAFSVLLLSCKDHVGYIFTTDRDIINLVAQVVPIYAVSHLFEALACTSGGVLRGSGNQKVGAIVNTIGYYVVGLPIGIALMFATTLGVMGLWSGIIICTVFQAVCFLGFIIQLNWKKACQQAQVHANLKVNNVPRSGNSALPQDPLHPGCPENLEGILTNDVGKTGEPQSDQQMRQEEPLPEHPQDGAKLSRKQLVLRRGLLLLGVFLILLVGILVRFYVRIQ

CYP2C19 = CYP2C19 (Homo sapiens, UniProt P33261); experiment: In vitro P450 inhibition, recombinant CYP2C19; format: in vitro ADME
BCRP = target: T2, BCRP (Homo sapiens, UniProt Q9UNQ0); experiment: BCRP vesicular transport inhibition assay; format: in vitro ADME
T2 sequence (Q9UNQ0 1-655): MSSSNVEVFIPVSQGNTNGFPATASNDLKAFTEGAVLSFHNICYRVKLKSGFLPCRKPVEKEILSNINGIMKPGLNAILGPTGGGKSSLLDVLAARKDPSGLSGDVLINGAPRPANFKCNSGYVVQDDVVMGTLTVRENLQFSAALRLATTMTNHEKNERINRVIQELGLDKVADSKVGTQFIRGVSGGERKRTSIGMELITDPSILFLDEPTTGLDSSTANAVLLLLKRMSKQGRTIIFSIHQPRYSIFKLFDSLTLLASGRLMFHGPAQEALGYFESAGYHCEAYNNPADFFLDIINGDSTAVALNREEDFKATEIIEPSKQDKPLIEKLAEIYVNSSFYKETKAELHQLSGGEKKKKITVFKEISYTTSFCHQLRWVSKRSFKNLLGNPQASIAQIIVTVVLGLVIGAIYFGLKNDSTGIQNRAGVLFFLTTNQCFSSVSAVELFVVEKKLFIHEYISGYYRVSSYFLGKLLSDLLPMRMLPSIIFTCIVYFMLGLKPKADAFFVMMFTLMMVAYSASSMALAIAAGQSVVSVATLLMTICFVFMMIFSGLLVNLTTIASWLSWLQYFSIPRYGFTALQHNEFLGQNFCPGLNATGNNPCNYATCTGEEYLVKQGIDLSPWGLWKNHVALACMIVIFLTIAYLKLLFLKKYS

human liver microsomes = experiment: Human liver microsome incubation with or without chemical enzyme inhibitors; format: in vitro ADME
CYP2C8 = target: T3, CYP2C8 (Homo sapiens, UniProt P10632); experiment: In vitro P450 inhibition, recombinant CYP2C8; format: in vitro ADME
T3 sequence (P10632 1-490): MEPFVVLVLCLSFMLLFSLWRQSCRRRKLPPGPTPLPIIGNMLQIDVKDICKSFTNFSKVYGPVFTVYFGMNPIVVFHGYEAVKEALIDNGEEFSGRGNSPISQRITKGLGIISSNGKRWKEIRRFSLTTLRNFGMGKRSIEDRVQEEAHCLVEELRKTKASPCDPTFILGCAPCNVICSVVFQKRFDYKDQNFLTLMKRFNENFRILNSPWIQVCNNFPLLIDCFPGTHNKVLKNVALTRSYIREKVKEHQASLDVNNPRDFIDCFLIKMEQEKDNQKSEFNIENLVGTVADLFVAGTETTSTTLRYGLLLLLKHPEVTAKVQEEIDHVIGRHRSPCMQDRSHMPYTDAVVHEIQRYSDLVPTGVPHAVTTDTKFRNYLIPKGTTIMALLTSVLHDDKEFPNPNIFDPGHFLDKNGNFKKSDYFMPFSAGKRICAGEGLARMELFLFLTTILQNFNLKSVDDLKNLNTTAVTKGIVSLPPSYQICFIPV

[4] = first vesicular transport run, 40 µM

Sequence of CYP2C19 (P33261 whole entry): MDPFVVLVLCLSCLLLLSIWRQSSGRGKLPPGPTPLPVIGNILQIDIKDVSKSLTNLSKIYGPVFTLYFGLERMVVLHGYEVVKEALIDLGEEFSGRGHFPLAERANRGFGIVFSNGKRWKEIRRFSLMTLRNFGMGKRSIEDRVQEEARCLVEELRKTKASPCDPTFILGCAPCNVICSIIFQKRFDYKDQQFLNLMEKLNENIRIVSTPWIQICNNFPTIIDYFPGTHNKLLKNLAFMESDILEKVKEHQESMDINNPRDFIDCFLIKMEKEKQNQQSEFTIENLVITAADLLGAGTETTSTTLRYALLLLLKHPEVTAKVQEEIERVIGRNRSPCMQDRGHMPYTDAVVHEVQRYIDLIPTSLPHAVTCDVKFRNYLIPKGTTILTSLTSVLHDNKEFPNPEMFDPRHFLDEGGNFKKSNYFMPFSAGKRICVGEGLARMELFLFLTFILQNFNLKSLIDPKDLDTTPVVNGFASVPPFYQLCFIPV
Sequence of CYP3A4 (Homo sapiens, UniProt P08684) (P08684 whole entry): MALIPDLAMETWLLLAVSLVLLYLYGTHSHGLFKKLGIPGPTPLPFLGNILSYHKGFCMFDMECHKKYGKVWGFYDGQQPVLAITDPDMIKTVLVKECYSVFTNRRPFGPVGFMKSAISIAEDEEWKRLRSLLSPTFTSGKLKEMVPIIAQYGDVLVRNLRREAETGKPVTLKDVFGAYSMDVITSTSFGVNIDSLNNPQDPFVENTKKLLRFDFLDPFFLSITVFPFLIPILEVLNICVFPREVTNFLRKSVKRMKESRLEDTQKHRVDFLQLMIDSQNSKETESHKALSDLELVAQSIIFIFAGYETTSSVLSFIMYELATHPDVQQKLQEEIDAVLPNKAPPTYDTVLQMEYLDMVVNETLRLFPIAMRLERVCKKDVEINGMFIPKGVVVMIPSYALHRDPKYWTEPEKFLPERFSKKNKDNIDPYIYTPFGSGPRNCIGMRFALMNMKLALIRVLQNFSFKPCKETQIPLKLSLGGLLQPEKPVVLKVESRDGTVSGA
Sequence of MDR1 (P08183 whole entry): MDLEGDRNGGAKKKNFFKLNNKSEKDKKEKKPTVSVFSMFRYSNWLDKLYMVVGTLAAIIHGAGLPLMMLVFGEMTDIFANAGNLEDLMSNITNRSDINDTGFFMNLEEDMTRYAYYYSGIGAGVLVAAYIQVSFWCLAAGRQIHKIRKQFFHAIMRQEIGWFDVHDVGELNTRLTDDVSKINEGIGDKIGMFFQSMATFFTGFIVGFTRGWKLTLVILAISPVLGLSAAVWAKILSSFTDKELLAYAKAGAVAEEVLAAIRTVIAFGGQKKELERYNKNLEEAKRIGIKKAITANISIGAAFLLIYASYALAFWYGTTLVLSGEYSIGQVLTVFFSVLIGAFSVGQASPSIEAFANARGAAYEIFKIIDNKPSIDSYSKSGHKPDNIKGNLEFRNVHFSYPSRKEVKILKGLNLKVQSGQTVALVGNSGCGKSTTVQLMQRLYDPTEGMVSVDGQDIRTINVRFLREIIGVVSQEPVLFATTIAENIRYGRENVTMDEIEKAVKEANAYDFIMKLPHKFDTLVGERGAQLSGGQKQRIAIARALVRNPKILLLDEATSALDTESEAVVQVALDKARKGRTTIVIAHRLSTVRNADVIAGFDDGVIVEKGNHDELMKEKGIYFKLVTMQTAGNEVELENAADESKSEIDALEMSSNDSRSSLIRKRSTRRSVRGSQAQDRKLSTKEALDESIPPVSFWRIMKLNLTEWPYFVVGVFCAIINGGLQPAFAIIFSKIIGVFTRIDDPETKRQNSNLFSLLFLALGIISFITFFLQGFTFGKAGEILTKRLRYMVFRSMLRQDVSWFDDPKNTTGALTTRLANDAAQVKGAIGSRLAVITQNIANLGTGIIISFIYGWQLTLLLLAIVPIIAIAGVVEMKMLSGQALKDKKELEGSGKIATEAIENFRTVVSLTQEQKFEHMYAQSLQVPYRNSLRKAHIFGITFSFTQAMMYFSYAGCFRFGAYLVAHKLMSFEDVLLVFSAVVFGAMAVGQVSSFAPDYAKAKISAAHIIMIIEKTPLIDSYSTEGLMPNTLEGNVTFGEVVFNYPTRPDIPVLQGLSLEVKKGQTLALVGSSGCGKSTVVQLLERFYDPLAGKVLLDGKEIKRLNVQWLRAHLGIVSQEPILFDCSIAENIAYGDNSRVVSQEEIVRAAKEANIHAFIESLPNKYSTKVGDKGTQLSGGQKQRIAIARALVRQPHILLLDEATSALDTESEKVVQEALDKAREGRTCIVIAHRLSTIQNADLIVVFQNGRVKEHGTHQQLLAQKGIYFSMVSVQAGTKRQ
Sequence of BSEP (O95342 whole entry): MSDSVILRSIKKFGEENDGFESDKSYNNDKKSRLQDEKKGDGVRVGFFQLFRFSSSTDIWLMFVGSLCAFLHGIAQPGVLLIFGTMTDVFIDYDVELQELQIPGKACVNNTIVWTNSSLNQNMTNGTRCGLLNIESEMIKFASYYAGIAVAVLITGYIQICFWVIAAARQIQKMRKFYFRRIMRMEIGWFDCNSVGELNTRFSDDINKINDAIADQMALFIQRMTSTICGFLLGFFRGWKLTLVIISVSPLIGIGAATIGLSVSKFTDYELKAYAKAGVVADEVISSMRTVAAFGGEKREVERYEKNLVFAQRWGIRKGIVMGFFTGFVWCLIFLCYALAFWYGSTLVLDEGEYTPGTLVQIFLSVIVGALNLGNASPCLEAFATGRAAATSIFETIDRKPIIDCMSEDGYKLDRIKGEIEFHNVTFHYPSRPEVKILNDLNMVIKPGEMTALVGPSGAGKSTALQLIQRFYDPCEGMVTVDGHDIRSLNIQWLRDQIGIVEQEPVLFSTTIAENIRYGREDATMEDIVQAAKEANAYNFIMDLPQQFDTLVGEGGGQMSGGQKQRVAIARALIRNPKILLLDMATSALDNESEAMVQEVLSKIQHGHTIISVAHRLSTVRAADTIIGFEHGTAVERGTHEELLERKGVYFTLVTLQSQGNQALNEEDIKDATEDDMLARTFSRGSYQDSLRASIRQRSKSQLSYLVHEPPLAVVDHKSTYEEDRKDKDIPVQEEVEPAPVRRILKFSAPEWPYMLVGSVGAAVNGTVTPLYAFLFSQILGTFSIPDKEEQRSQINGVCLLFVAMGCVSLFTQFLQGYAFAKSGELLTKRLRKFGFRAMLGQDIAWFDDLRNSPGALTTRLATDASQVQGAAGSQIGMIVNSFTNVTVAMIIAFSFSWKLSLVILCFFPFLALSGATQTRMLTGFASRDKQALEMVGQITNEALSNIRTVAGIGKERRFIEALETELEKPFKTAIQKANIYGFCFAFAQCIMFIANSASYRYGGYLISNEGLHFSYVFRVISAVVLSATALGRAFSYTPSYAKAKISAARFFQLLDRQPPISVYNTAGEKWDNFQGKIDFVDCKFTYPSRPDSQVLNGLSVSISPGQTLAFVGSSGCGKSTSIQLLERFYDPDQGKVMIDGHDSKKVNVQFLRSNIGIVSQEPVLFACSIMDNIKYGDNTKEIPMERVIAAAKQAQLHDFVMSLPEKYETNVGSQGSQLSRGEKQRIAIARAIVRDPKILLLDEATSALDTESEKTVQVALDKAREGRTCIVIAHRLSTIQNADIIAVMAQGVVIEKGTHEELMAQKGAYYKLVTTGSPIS

N#Cc1ccc(N2N=C3c4ccc(C(=O)N5CCC(O)CC5)nc4CC[C@@H]3[C@@H]2C2CCCC2)cc1Cl [Ocedurenone, ocedurenone]
inhibition of BSEP at 40 µM (BSEP; [4]): 79% | maximum inhibition of BSEP-mediated transport (BSEP; repeat with 7 concentrations): 71% | Substrate, MDR1 ML (MDR1): likely a substrate | percent remaining activity of CYP3A4 (midazolam-based) (CYP3A4 [1]; ocedurenone at 200 μM, midazolam probe): 70.2% | percent remaining activity of CYP3A4 (testosterone-based) (CYP3A4 [1]; ocedurenone at 200 μM, testosterone probe): 68.1% | IC50 (CYP3A4 [1]; read-out: IC50 CYP3A4 (midazolam-based), midazolam probe): > 200 µM | IC50 (CYP3A4 [1]; read-out: IC50 CYP3A4 (testosterone-based), testosterone probe): > 200 µM | inhibition category CYP3A4 (CYP3A4 [1]; recombinant enzyme): little or no inhibition | percent CYP3A4 induction (of positive control) (CYP3A4 [2]): lower than 40% | plasma Cmax at steady state [3]: 32 to 40 ng/mL | maximum inhibition of MATE1-mediated probe substrate accumulation (MATE1; at 40 µM): 95% | IC50 (MATE1; read-out: Inhibition results (IC50), MATE1 UPT, probe metformin (10 µm), Table 1): 6.7 µM | percent remaining activity of CYP2C19 (CYP2C19; ocedurenone at 200 μM): 78.5% | IC50 (CYP2C19; read-out: IC50 CYP2C19, recombinant CYP): > 200 µM | inhibition category CYP2C19 (CYP2C19; recombinant enzyme): little or no inhibition | inhibition of BCRP at 40 µM (BCRP; [4]): 98% | maximum inhibition of BCRP-mediated transport (BCRP; repeat with 7 concentrations, at 40 µm): 98% | stability in human hepatic microsomes (human liver microsomes): stable | ocedurenone metabolism in HLM with chemical inhibitor added (human liver microsomes; 1-aminobenzotriazole or ketoconazole added separately, 3 µm ocedurenone): inhibited | percentage remaining activity of CYP2C8 (CYP2C8; ocedurenone at 200 μM): 26.4% | IC50 (CYP2C8; read-out: IC50 CYP2C8, recombinant CYP, results section): > 10 µM | inhibition category CYP2C8 (CYP2C8; recombinant enzyme): weak inhibition (IC50 >10 μM categorized as weak inhibition)
